Measured values from US20100105772A1, “USE OF NOVEL LIPID MEDIATORS TO INHIBIT ANGIOGENESIS” (priority 2008, published 2010).

How the values were obtained:
VEGF-D mRNA = assay: Real-time PCR of VEGF-D mRNA in suture-induced inflamed corneas; assay type: in vivo, mice; conditions: after suture placement; vs vehicle-treated controls
Procedure: (§1) FIG. 4. The Impact of Lipoxin on the mRNA Expression of VEGFs and VEGFRs in Inflamed Corneas. ATLa or vehicle was subconjunctivally injected at 0 h and 48 h after suture placement. For each compound treatment, corneas were harvested from a group of mice at 24 h, and another group at 72 h after suture placement, as well as from normal untreated control corneas (6 corneas per group). (A) VEGF ligand species (VEGF-A, VEGF-C, VEGF-D) and (B) VEGFRs (VEGFR2 and VEGFR3) were tested by real-time PCR and normalized to GAPDH mRNA. Values are expressed as fold change over the normal control cornea. Results represent the mean (±SEM) of three samples per group (each sample consisted of 2 pooled corneas), and the data are representative of two independent experiments (*P<0.05, **P<0.001, ***P<0.0005, vs vehicle-treated group, t-test). […]
(§2) BALB/c mice were randomized to receive ATLa, or vehicle (normal saline) by subconjunctival injection in a masked fashion after suture or hydron pellet placement. […] ATLa was synthesized as described previously.^20 The physical properties were monitored routinely via LC/MS/MS matching the reported biological and physical properties prior to analysis in present experiments. […]

[1] = test system: suture-induced corneal NV (HA and LA); assay: Suture-induced inflammatory corneal angiogenesis (slit-lamp NV score, blood and lymphatic vessel density); assay type: in vivo, mice
Procedure: FIG. 5. Suture-induced Corneal HA is Reduced with Lipoxin. ATLa or vehicle was subconjunctivally injected every 48 h from 0 to 14 days after suture placement. A. In a masked fashion, corneal NV was scored biomicroscopically with a slit-lamp using a grid system. Values are expressed as the mean (±SEM) of 6 corneas. B. Whole corneal tissues were harvested on day 14 and double-stained with anti-CD31 (green) and anti-LYVE-1 (red) for epifluorescence microscopy (20× magnification). C. The density of blood vessels (CD31^high/LYVE-1^−) or lymphatic vessels (CD31^lowLYVE-1^high) covering the cornea was analyzed. Values are expressed as the mean (±SEM) of 6 corneas of per treatment group (**P<0.001 vs vehicle-treated group, t-test), and the data are representative of two independent experiments. […]
(§3) BALB/c mice were randomized to receive ATLa, or vehicle (normal saline) by subconjunctival injection in a masked fashion after suture or hydron pellet placement. […] ATLa was synthesized as described previously.^20 The physical properties were monitored routinely via LC/MS/MS matching the reported biological and physical properties prior to analysis in present experiments.
(§4) Full thickness corneal tissue or 8 μm-frozen sections were fixed in acetone for 15 minutes at room temperature. […] Finally, the samples were covered with mounting medium (Vector Laboratories, Burlingame, Calif.) and analyzed by epifluorescence microscopy (Eclipse E800; Nikon, Tokyo, Japan). […]
To quantify corneal angiogenesis, digital pictures of corneal flat-mounts were taken using an image analysis system (Spot Image Analysis, Diagnostic Instruments, Sterling Heights, Mich.). The areas covered by CD31^high/LYVE-1^−-vessels (blood vessels) or CD31^lowLYVE-1^high vessels (lymphatics) were measured morphometrically using NIH Image J software (version 1.34s; http://rsb.info.nih.gov/ij). […]

EC = conditions: cited from earlier work
[2] = stable analog of LXA4/ATL; reference 36; cited from earlier work
macrophages = assay: Macrophage infiltration in suture-induced inflamed corneas (F4/80 staining of cross-sections); assay type: in vivo, mice; conditions: 72 h after suture placement
Procedure: ATLa or vehicle was subconjunctivally injected at 0 h and 48 h after suture placement. For each compound treatment, eyes were enucleated from a group of mice at 24 h, and another group at 72 h after suture placement (3 eyes per group). Cross-sections were stained with anti-neutrophil (NIMP-R14) or anti-macrophage (F4/80) Ab, and 12 sections were used to enumerate the respective leukocyte populations. Results represent the mean (±SEM) of 3 eyes per group (*P<0.05, **P<0.001 vs vehicle-treated group, t-test), and data are representative of two independent experiments. […]
as §3, §4

TNF-α mRNA = assay: Real-time PCR of TNF-α mRNA in suture-induced inflamed corneas; assay type: in vivo, mice; conditions: vs vehicle
Procedure: (§5) FIG. 3. Lipoxin Reduces Cytokine mRNA Expressions in Inflamed Corneas. ATLa or vehicle was subconjunctivally injected at 0 h and 48 h after suture placement. For each compound treatment, corneas were harvested from a group of mice at 24 h, and another group at 72 h after suture placement, as well as from normal untreated control corneas (6 corneas per group). mRNA levels of inflammatory cytokines (including IL-1α, IL-1β, and TNF-α) were determined by real-time PCR. Data were normalized to GAPDH mRNA and values were expressed as the fold change over normal control corneas. Results represent the mean (±SEM) of three samples per group (each sample consisted of 2 pooled corneas), and data are representative of two independent experiments (*P<0.05, **P<0.001 vs vehicle-treated group, t-test). […]
as §2

IL-1α mRNA = assay: Real-time PCR of IL-1α mRNA in suture-induced inflamed corneas; assay type: in vivo, mice; conditions: 24 h and 72 h after suture placement; vs vehicle
Procedure: as §5, §2

VEGFR-3 mRNA = assay: Real-time PCR of VEGFR-3 mRNA in suture-induced inflamed corneas; assay type: in vivo, mice; conditions: after suture placement; vs vehicle-treated controls
Procedure: as §1, §2

mouse IL-1 beta = assay: ELISA of IL-1 beta protein in homogenates of suture-induced inflamed corneas; assay type: in vivo, mice
Procedure: FIG. 7. ATLa Regulates IL-1β. Mice were treated at Oh and 48 h after suture-placement with ATLa or vehicle. Whole corneas were excised at 72 h, and subsequently freeze-thawed 3 times. Cornea was then homogenized using a pellet pestile motor with additional protease inhibitors. Homogenates were centrifuged at 12,000 rpm for 5 minutes and the supernatant was assayed for mouse IL-1 beta via ELISA (eBioscience, USA) according to the manufacturer's instructions.
The standard model for induction of inflammatory corneal NV is associated with development of intrastromal vessels in close association with a mixed-cell (primarily neutrophilic) infiltrate.^14,15 Three interrupted sutures (11-0 nylon, Sharpoint; Vanguard, Houston, Tex.) were placed intrastromally with two stromal incursions extending over 120° of the corneal circumference each to induce inflammatory corneal NV, which is also associated with significant LA, as described previously.^14 The corneas were followed by slit-lamp biomicroscopy for corneal NV development. […]
as §3

VEGF-C mRNA = assay: Real-time PCR of VEGF-C mRNA in suture-induced inflamed corneas; assay type: in vivo, mice; conditions: 24 h and 72 h after suture placement; vs vehicle-treated group
Procedure: as §1, §2

[3] = test system: VEGF-A-induced corneal HA and LA; assay: Corneal micropocket assay with VEGF-A pellets (vessel density); assay type: in vivo, mice; conditions: VEGF-A micropellet, day 7
Procedure: (§6) FIG. 6. ATLa Regulate IL-1β- and VEGF-A-induced Corneal HA and LA. Hydron pellets containing IL-1β or VEGF-A were implanted into the corneas on day 0. ATLa or vehicle was subconjunctivally injected every 48 h from 0 to 7 days after pellet implantation (4 corneas per treatment, for each pellet-type). A. Slit-lamp examination was performed on day 7 and representative images are shown. B. The density of blood vessels (CD31^high/LYVE-1^−) or lymphatic vessels (CD31^lowLYVE-1^high) covering each cornea was analyzed. Values are expressed as the mean (±SEM) of each treatment group (4 corneas per group) and the data are representative of two independent experiments (*P<0.05 vs vehicle-treated group, t-test).
(§7) The corneal micropocket assay in mice and quantification of the resultant NV has been described previously.^16,17 In brief, 0.3 μl of hydron pellets (IFN Sciences, New Brunswick, N.J.) containing 30 ng of murine IL-1β (R&D Systems, Minneapolis, Minn.) or 200 ng of VEGF-A (gift from BRB Preclinical Repository, National Cancer Institute) were prepared and implanted into the corneal stroma of male BALB/c mice. After 7 days the animals were sacrificed and the corneas were harvested for quantitative analysis of HA and LA.
(§8) BALB/c mice were randomized to receive ATLa, or vehicle (normal saline) by subconjunctival injection in a masked fashion after suture or hydron pellet placement. […]

[4] = test system: macrophage phagocytosis (e.g. of apoptotic neutrophils); conditions: reference 26; cited from earlier work
[5] = test system: IL-1β-induced corneal HA and LA; assay: Corneal micropocket assay with IL-1β pellets (vessel density); assay type: in vivo, mice; conditions: IL-1β micropellet, day 7
Procedure: as §6, §7, §8

VEGF-A mRNA = assay: Real-time PCR of VEGF-A mRNA in suture-induced inflamed corneas; assay type: in vivo, mice; conditions: 24 h and 72 h after suture placement; vs vehicle-treated group
Procedure: as §1, §2

IL-1β mRNA = assay: Real-time PCR of IL-1β mRNA in suture-induced inflamed corneas; assay type: in vivo, mice; conditions: 24 h and 72 h after suture placement; vs vehicle-treated controls
Procedure: as §5, §2

neutrophils = assay: Neutrophil infiltration in suture-induced inflamed corneas (NIMP-R14 staining of cross-sections); assay type: in vivo, mice; conditions: for neutrophils per section: n=3, mean±SEM
Procedure: ATLa or vehicle was subconjunctivally injected at 0 h and 48 h after suture placement. For each compound treatment, eyes were enucleated from a group of mice at 24 h, and another group at 72 h after suture placement (3 eyes per group). Cross-sections were stained with anti-neutrophil (NIMP-R14) or anti-macrophage (F4/80) Ab, and 12 sections were used to enumerate the respective leukocyte populations. Results represent the mean (±SEM) of 3 eyes per group (*P<0.05, **P<0.001 vs vehicle-treated group, t-test), and data are representative of two independent experiments.
The standard model for induction of inflammatory corneal NV is associated with development of intrastromal vessels in close association with a mixed-cell (primarily neutrophilic) infiltrate.^14,15 Three interrupted sutures (11-0 nylon, Sharpoint; Vanguard, Houston, Tex.) were placed intrastromally with two stromal incursions extending over 120° of the corneal circumference each to induce inflammatory corneal NV, which is also associated with significant LA, as described previously.^14 The corneas were followed by slit-lamp biomicroscopy for corneal NV development. NV was graded between 0 and 3, with increments of 0.5, using a grid system per each corneal quadrant based on the centripetal extent of the neovascular branches from the limbus. Scores for each quadrant then summed to derive the NV index (range 0 to 12) for each eye, as previously described.^14
as §3, §4

VEGFR-2 mRNA = assay: Real-time PCR of VEGFR-2 mRNA in suture-induced inflamed corneas; assay type: in vivo, mice; conditions: 24 h and 72 h after suture placement; vs vehicle-treated group
Procedure: as §1, §2

COC(=O)CCC[C@H](O)[C@H](O)/C=C/C=C/C=C\C=C\[C@H](O)COc1ccc(F)cc1 [ATLa, 15-epi-16-(para-fluoro)-phenoxy-lipoxin A4 methyl ester]
VEGF-D mRNA expression (VEGF-D mRNA): not significantly altered | angiogenic response (growth of corneal neovessels, slit lamp biomicroscopy) ([1]; 2-week time course, injection every 48 h, vs vehicle control): significant suppression | BV density (CD31high/LYVE-1−) ([1]; day 14 after suture placement, n=6, mean±SEM): 8.26±0.63% | density of lymphatic vessels (CD31low LYVE-1high) ([1]; day 14 after suture placement, vs vehicle controls): not observed | EC adhesion (EC; VEGF-A-induced angiogenesis, references 37, 38): inhibition | VEGF-A-induced EC proliferation (EC; reference 39): suppression | local inactivation (stability) [2]: resists local inactivation | macrophages per section (macrophages; n=3, mean±SEM): 46±5 cells/section | reduction in macrophage infiltration (macrophages; vs vehicle control group): 25-40% | increase in TNF-α expression (mRNA) (TNF-α mRNA; 24 h after suture placement): significantly suppressed | increase in TNF-α expression (mRNA) (TNF-α mRNA; 72 h after suture placement): not at 72 h | expression of IL-1α (mRNA) (IL-1α mRNA): not significantly altered | VEGFR-3 mRNA expression (VEGFR-3 mRNA): not significantly altered | IL-1 beta in corneas (mouse IL-1 beta; ELISA of corneal homogenate supernatant, 72 h, treated at 0 h and 48 h, n=4): 21.3 ± 0.8 pg/mL | decrease in IL-1β protein level (mouse IL-1 beta; ELISA, 72 h after suture placement, vs vehicle-treated group): 70% | VEGF-C mRNA expression (VEGF-C mRNA): lower | BV density ([3]; n=4, mean±SEM): 5.9±0.4% | LA stimulated by VEGF-A ([3]; vs vehicle): no significant reduction | macrophage phagocytosis [4]: increase | BV density ([5]; n=4, mean±SEM): 16.1±3.0% | LA stimulated by IL-1β ([5]; vs vehicle): no significant reduction | VEGF-A mRNA expression (VEGF-A mRNA): lower | reduction in the increase of IL-1β expression levels (mRNA) (IL-1β mRNA): more than 50% | inhibition of neutrophils recruitment into the inflamed corneas (neutrophils; 24 and 72 h after suture placement, 100 ng/10 μl subconjunctival at 0 h and 48 h, vs vehicle): ~30% | neutrophils per section (neutrophils; 24 h after suture placement): 53±1 cells/section | neutrophils per section (neutrophils; 72 h after suture placement): 34±5 cells/section | VEGFR-2 mRNA expression (VEGFR-2 mRNA): lower
